# Read-outs that look alike come from different tables or passages of the source.
# Tests used:
# [1] = test system: Ustilago segetum var. avenae; assay: in vitro-Test with fungal microorganisms, Method B (tables I6-I11); assay type: cell-based; settings: read-out: Efficacy %
# Procedure, shortened: (§1)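 Efficacy, relative to untreated control (0% = growth as in control, 100% = no growth), from photometric growth measurement at 600 nm after 3 to 7 days at 20° C., 85% relative humidity. Compound applied in methanol+emulsifier, solvent evaporated, then spore/mycelium-amended liquid medium added.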
# Parastagonospora nodorum [2] = assay: in vitro-Test with fungal microorganisms, Method A (tables H1-H4); assay type: cell-based
# Procedure, shortened: (§2)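 Test compound in methanol plus alkylaryl-polyglycol-ether emulsifier was dried into wells, then liquid potato dextrose medium containing spores or mycelium of the fungus was added. Plates were incubated at 20° C and 85% relative humidity; growth read at 620 nm after 3-5 days, efficacy relative to untreated control.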
# [3] = test system: Colletotrichum lindemuthianum; assay: in vitro-Test with fungal microorganisms, Method A (tables D1-D8); assay type: cell-based; settings: Colletotrichum lindemuthianum
# Procedure, shortened: as §2
# Alternaria alternata = assay: in vitro-Test with fungal microorganisms, Method B (tables A13-A22); assay type: cell-based; settings: Alternaria alternata
# Procedure, shortened: as §1
# Cordana musae [4] = assay: in vitro-Test with fungal microorganisms, Method B (tables E9-E16); assay type: cell-based; settings: for Efficacy %: single substance
# Procedure, shortened: as §1
# Alternaria alternate = assay: in vitro-Test with fungal microorganisms, Method A (tables A1-A12); assay type: cell-based, Alternaria alternata
# Procedure, shortened: as §2
# Botrytis cinerea = assay: in vitro-Test with fungal microorganisms, Method A (tables B1-B14); assay type: cell-based; settings: Botrytis cinerea
# Procedure, shortened: as §2
# Fusarium culmorum [5] = assay: in vitro-Test with fungal microorganisms, Method B (tables G5-G15); assay type: cell-based; settings: Fusarium culmorum, read-out: Efficacy
# Procedure, shortened: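 Steps: solvent evaporation leaves the compound coating the wells; fungus-inoculated liquid growth medium goes on top; absorbance at 600 nm is measured; incubation runs 3 to 7 days at 20° C. with 85% relative humidity. Inhibition is then read photometrically and expressed as efficacy against untreated control.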
# Cordana musae [6] = assay: in vitro-Test with fungal microorganisms, Method A (tables E1-E8); assay type: cell-based; settings: Neocordana musae
# Procedure, shortened: as §2
# Cercospora beticola [7] = assay: in vitro-Test with fungal microorganisms, Method A (tables C1-C10); assay type: cell-based
# Procedure, shortened: as §2
# Fusarium culmorum [8] = assay: in vitro-Test with fungal microorganisms, Method A (tables G1-G4); assay type: cell-based; settings: Fusarium culmorum, alone, read-out: Efficacy
# Procedure, shortened: as §2
# Diaporthe citri [9] = assay: in vitro-Test with fungal microorganisms, Method A (tables F1-F11); assay type: cell-based; settings: Diaporthe citri
# Procedure, shortened: as §2
# Parastagonospora nodorum [10] = assay: in vitro-Test with fungal microorganisms, Method B (tables H5-H8); assay type: cell-based; settings: Parastagonospora nodorum
# Procedure, shortened: as §1
# Diaporthe citri [11] = assay: in vitro-Test with fungal microorganisms, Method B (tables F12-F15); assay type: cell-based
# Procedure, shortened: as §1
# Cercospora beticola [12] = assay: in vitro-Test with fungal microorganisms, Method B (tables C11-C20); assay type: cell-based; settings: Cercospora beticola, read-out: Efficacy %
# Procedure, shortened: as §1
# [13] = test system: Ustilago segetum var. avenae; assay: in vitro-Test with fungal microorganisms, Method A (tables I1-I5); assay type: cell-based
# Procedure, shortened: as §2
# Colletotrichum coccodes = assay: in vitro-Test with fungal microorganisms, Method B (tables J1-J11); assay type: cell-based; settings: Colletotrichum coccodes
# Procedure, shortened: as §1
# [14] = read-out: Efficacy %, mixing partner alone, 0.04 ppm
# [15] = read-out: Efficacy %, mixing partner alone, 0.2 ppm
# [16] = read-out: Efficacy %, mixing partner alone, 1.0 ppm
# [17] = read-out: Efficacy %, mixing partner alone, 5.0 ppm
# [18] = read-out: Efficacy %, alone, 1.0 ppm
# [19] = read-out: Efficacy %, alone, 5.0 ppm
compound,measurement,setting,value
"N#Cc1c[nH]cc1-c1cccc2c1OC(F)(F)O2 [(13.001) fludioxonil, fludioxonil]",inhibition of growth at 0.04 ppm,[1],55%
same,inhibition of growth at 0.2 ppm,[1],93%
same,inhibition of growth at 5 ppm,[1],100%
same,Efficacy,Parastagonospora nodorum [2]; 0.04 ppm,0%
same,Efficacy,Parastagonospora nodorum [2]; 0.2 ppm,0%
same,Efficacy,"Parastagonospora nodorum [2]; single active compound, 0.04 ppm",0%
same,Efficacy,"Parastagonospora nodorum [2]; single active compound, 0.2 ppm",0%
same,Efficacy,"Parastagonospora nodorum [2]; single active compound, 1.0 ppm",38%
same,Efficacy,"Parastagonospora nodorum [2]; single active compound, 5.0 ppm",64%
same,inhibition of growth at 0.04 ppm,[3]; [14],11%
same,inhibition of growth at 0.2 ppm,[3]; [15],60%
same,inhibition of growth at 1 ppm,[3]; [16],85%
same,inhibition of growth at 5 ppm,[3]; [17],90%
same,inhibition of growth at 0.04 ppm,"[3]; read-out: Efficacy %, single active at 0.04 ppm",0%
same,inhibition of growth at 0.2 ppm,"[3]; read-out: Efficacy %, single active at 0.2 ppm",58%
same,inhibition of growth at 5 ppm,"[3]; read-out: Efficacy %, single active at 5.0 ppm",88%
same,inhibition of growth at 1 ppm,"Alternaria alternata; read-out: Efficacy, 1 ppm",88%
same,inhibition of growth at 5 ppm,"Alternaria alternata; read-out: Efficacy, 5 ppm",100%
same,inhibition of growth at 0.04 ppm,"Alternaria alternata; read-out: Efficacy, single compound, 0.04 ppm",13%
same,inhibition of growth at 0.2 ppm,"Alternaria alternata; read-out: Efficacy, single compound, 0.2 ppm",18%
same,inhibition of growth at 5 ppm,"Alternaria alternata; read-out: Efficacy, single compound, 5 ppm",99%
same,inhibition of growth at 0.04 ppm,"Cordana musae [4]; Neocordana musae, read-out: Efficacy",6%
same,Efficacy %,Cordana musae [4]; 0.2 ppm,0%
same,Efficacy %,Cordana musae [4]; 1 ppm,0%
same,Efficacy %,Cordana musae [4]; 5 ppm,11%
same,inhibition of growth at 0.04 ppm,"Alternaria alternate; Alternaria, read-out: Efficacy %, applied alone, 0.04 ppm",9%
same,inhibition of growth at 0.2 ppm,"Alternaria alternate; Alternaria, read-out: Efficacy %, applied alone, 0.2 ppm",17%
same,inhibition of growth at 1 ppm,"Alternaria alternate; Alternaria, read-out: Efficacy %, applied alone, 1.0 ppm",97%
same,inhibition of growth at 5 ppm,"Alternaria alternate; Alternaria, read-out: Efficacy %, applied alone, 5.0 ppm",100%
same,Efficacy %,"Alternaria alternate; applied alone, 0.04 ppm",0%
same,inhibition of growth at 0.2 ppm,"Botrytis cinerea; read-out: Efficacy %, alone, 0.2 ppm",100%
same,inhibition of growth at 1 ppm,Botrytis cinerea; [18],100%
same,inhibition of growth at 5 ppm,Botrytis cinerea; [19],100%
same,inhibition of growth at 0.04 ppm,"Botrytis cinerea; read-out: Efficacy, 0.04 ppm",19%
same,inhibition of growth at 0.2 ppm,"Botrytis cinerea; read-out: Efficacy, 0.2 ppm",100%
same,inhibition of growth at 0.04 ppm,Fusarium culmorum [5]; alone,0%
same,inhibition of growth at 0.2 ppm,Fusarium culmorum [5]; alone,22%
same,inhibition of growth at 1 ppm,Fusarium culmorum [5]; alone,68%
same,inhibition of growth at 5 ppm,"Fusarium culmorum [5]; 5 ppm, alone",98%
same,inhibition of growth at 0.04 ppm,Fusarium culmorum [5]; single active compound,0%
same,inhibition of growth at 0.2 ppm,Fusarium culmorum [5]; single active compound,26%
same,inhibition of growth at 1 ppm,Fusarium culmorum [5]; single active compound,88%
same,inhibition of growth at 0.04 ppm,Cordana musae [6]; [14],2%
same,inhibition of growth at 0.2 ppm,Cordana musae [6]; [15],0%
same,inhibition of growth at 1 ppm,Cordana musae [6]; [16],83%
same,inhibition of growth at 5 ppm,Cordana musae [6]; [17],55%
same,inhibition of growth at 0.04 ppm,"Cordana musae [6]; read-out: Efficacy %, single substance, 0.04 ppm",0%
same,Efficacy %,Cercospora beticola [7]; 5.0 ppm alone,98%
same,inhibition of growth at 0.04 ppm,"Cercospora beticola [7]; Cercospora beticola, read-out: Efficacy %, 0.04 ppm",0%
same,inhibition of growth at 0.04 ppm,"Cercospora beticola [7]; Cercospora beticola, read-out: Efficacy %, 0.04 ppm alone",0%
same,inhibition of growth at 0.2 ppm,"Cercospora beticola [7]; Cercospora beticola, read-out: Efficacy %, 0.2 ppm alone",14%
same,inhibition of growth at 1 ppm,"Cercospora beticola [7]; Cercospora beticola, read-out: Efficacy %, 1.0 ppm",55%
same,inhibition of growth at 5 ppm,"Cercospora beticola [7]; Cercospora beticola, read-out: Efficacy %, 5.0 ppm",90%
same,inhibition of growth at 5 ppm,"Cercospora beticola [7]; Cercospora beticola, read-out: Efficacy %, 5.0 ppm alone",93%
same,inhibition of growth at 0.2 ppm,Fusarium culmorum [8]; 0.2 ppm,36%
same,inhibition of growth at 1 ppm,Fusarium culmorum [8]; 1.0 ppm,98%
same,inhibition of growth at 5 ppm,Fusarium culmorum [8]; 5.0 ppm,99%
same,inhibition of growth at 0.04 ppm,"Diaporthe citri [9]; read-out: Efficacy, applied alone, 0.04 ppm",0%
same,inhibition of growth at 0.2 ppm,"Diaporthe citri [9]; read-out: Efficacy, applied alone, 0.2 ppm",0%
same,inhibition of growth at 1 ppm,"Parastagonospora nodorum [10]; read-out: Efficacy, 1 ppm",58%
same,inhibition of growth at 5 ppm,"Parastagonospora nodorum [10]; read-out: Efficacy, 5 ppm",98%
same,Efficacy,"Diaporthe citri [11]; Table F12, 0.2 ppm alone",0%
same,Efficacy,"Diaporthe citri [11]; Table F12, 1 ppm alone",9%
same,Efficacy,"Diaporthe citri [11]; Table F13, 1 ppm alone",41%
same,Efficacy,"Diaporthe citri [11]; Table F13, 5 ppm alone",0%
same,inhibition of growth at 5 ppm,Cercospora beticola [12],93%
same,inhibition of growth at 0.04 ppm,"[13]; read-out: Efficacy %, alone, 0.04 ppm",19%
same,inhibition of growth at 1 ppm,[13]; [18],100%
same,inhibition of growth at 5 ppm,[13]; [19],100%
same,inhibition of growth at 0.04 ppm,"Colletotrichum coccodes; read-out: Efficacy %, 0.04 ppm",54%
same,inhibition of growth at 1 ppm,"Colletotrichum coccodes; read-out: Efficacy %, 1 ppm",100%
same,inhibition of growth at 5 ppm,"Colletotrichum coccodes; read-out: Efficacy %, 5 ppm",100%
same,inhibition of growth at 0.04 ppm,"Colletotrichum coccodes; read-out: Efficacy %, single active compound at 0.04 ppm",74%
